From patent publication US9464052B2, “Potassium ion channel modulators and uses thereof” (Ramot at Tel-Aviv University Ltd., priority 2008, dated 2016)
One block for each molecule: values may come before it.

Target: KCNQ2/KCNQ3 potassium channel (Homo sapiens, UniProt O43525+O43526)
Test: KCNQ2/KCNQ3 potassium channel current, automated parallel patch clamp (PatchXpress 7000A)
Assay type: cell-based
Conditions: channel expressed in mammalian cells, ambient temperature
Description: The objective of this study was to examine the in vitro effects of the Example compounds on the KCNQ2/KCNQ3 potassium channel current expressed in mammalian cells using the PatchXpress 7000A (Molecular Devices), an automatic parallel patch clamp system. The test compounds were evaluated at 30 μM with this concentration tested in 3 cells (n=3). The duration of exposure to the test compound concentration was 5 minutes. […] The results for a positive control, flupirtine (Table 2) confirm the sensitivity of the test system to detect KCNQ2/KCNQ3 current enhancement.
All experiments were performed at ambient temperature. Each cell acted as its own control.
A 30 μM concentration of test compound was applied via disposable polyethylene micropipette tips to naïve cells (n=2, where n=the number cells). Each solution exchange, performed in quadruplicate, consisted of aspiration and replacement of 45 of the total 50 μL volume of the extracellular well of the Sealchip16.
Vehicle was applied to naïve cells (n 2, where n=the number cells), for a 5 minute exposure interval. Each solution exchange, performed in quadruplicate, consisted of aspiration and replacement of 45 μL of the total 50 μL volume of the extracellular well of the Sealchip16. After vehicle application, the positive control was applied in the same manner, to verify sensitivity of the assay.
In preparation for a recording session, intracellular solution was loaded into the intracellular compartments of the Sealchip16 planar electrode. Cell suspension was pipetted into the extracellular compartments of the Sealchip16 planar electrode. After establishment of a whole-cell configuration, membrane currents were recorded using dual-channel patch clamp amplifiers in the PatchXpress®system. Before digitization, the current records were low-pass filtered at one-fifth of the sampling frequency.
Data acquisition and analyses were performed using the suite of pCLAMP programs (Axon Instruments, Union City, Calif.). Steady state was defined by the limiting constant rate of change with time (linear time dependence). The steady state before and after test article application was used to calculate the percentage of current inhibited at each concentration. Results obtained from different cell were averaged and presented as Mean±S.D.—see Tables 1 and 2.

[1] = 30 μM test compound, 5 minutes exposure

Compound: O=C(Cc1cccc(Nc2c(Cl)cc(Cl)cc2Cl)c1)NCCO [Example 1, N-(2-Hydroxy-ethyl)-2-[3-(2,4,6-trichloro-phenylamino)-phenyl]-acetamide]
Mean % Enhancement of KCNQ2/KCNQ3 [1]: 168.2%

Compound: O=C(O)CNC(=O)Cc1cc(Nc2cc(Cl)cc(Cl)c2)ccc1F [Example 2, {2-[5-(3,5-Dichloro-phenylamino)-2-fluoro-phenyl]-acetylamino}-acetic acid]
Mean % Enhancement of KCNQ2/KCNQ3 [1]: 162.5%

Compound: O=C(Cc1ccc(Nc2c(Cl)cc(C(F)(F)F)cc2Cl)cc1)NCCO [Example 3, 2-[4-(2,6-Dichloro-4-trifluoromethyl-phenylamino)-phenyl]-N-(2-hydroxy-ethyl)-acetamide]
Mean % Enhancement of KCNQ2/KCNQ3 [1]: 115.8%

Next, values leading:

Mean % Enhancement of KCNQ2/KCNQ3 [1]: 181.9%
Compound: O=C(O)CNC(=O)Cc1ccc(Nc2cc(Cl)cc(Cl)c2)cc1 [Example 4, {2-[4-(3,5-Dichlorophenylamino)-phenyl]-acetylamino}-acetic acid]

Mean % Enhancement of KCNQ2/KCNQ3 (10 μM positive control, applied after vehicle): 201.0%
Compound: CCOC(=O)Nc1ccc(NCc2ccc(F)cc2)nc1N [Flupirtine, reference compound]
